Consider 33 compounds from patent US20210317134A1, “UBIQUITIN-SPECIFIC-PROCESSING PROTEASE 7 (USP7) MODULATORS AND USES THEREOF” (RAPT THERAPEUTICS, INC., priority 2019, published 2021).

The target in the assay is USP7 (Homo sapiens, UniProt Q93009). As to the kind of experiment: USP7 inhibitory potency (Table 1). In kind it is biochemical.
USP7, sequence (Q93009 whole entry): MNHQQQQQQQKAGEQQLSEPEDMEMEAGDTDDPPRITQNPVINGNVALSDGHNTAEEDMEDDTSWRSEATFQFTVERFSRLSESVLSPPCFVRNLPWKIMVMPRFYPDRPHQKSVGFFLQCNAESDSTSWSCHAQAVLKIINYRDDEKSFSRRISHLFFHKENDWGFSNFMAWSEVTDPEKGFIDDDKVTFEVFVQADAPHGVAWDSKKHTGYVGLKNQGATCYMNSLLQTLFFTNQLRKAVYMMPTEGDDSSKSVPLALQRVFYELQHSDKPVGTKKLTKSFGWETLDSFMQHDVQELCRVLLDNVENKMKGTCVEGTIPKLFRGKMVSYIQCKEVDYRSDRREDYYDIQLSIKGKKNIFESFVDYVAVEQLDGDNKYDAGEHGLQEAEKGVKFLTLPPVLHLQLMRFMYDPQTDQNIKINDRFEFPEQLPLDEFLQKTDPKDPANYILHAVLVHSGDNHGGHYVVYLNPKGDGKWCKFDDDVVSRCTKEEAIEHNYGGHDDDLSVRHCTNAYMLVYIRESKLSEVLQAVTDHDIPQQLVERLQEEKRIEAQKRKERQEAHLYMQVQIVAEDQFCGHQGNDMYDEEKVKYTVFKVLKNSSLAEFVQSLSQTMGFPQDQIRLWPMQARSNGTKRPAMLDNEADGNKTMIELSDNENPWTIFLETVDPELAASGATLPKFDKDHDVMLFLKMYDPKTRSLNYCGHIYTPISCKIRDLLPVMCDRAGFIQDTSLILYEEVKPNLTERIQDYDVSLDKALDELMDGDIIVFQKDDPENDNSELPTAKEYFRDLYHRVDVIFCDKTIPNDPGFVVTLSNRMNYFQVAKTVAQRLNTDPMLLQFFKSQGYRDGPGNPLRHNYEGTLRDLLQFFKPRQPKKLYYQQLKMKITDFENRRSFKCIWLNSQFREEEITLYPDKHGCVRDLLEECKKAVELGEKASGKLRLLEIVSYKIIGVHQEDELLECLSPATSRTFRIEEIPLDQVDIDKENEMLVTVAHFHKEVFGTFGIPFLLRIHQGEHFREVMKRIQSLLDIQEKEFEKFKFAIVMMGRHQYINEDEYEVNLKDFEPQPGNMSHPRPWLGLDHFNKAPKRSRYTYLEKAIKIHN
With `O=C(C1Cc2cc(Cl)cc(-c3ccnc4[nH]ccc34)c2O1)N1CCCC(C2CNC2)C1` (stereo not drawn) [(3-(azetidin-3-yl)piperidin-1-yl)(5-chloro-7-(1H-pyrrolo[2,3-b]pyridin-4-yl)-2,3-dihydrobenzofuran-2-yl)methanone], the IC50 lay in the range of 10 to 30 µM. Then `O=C(C1Cc2cc(Cl)cc(-c3ccnc4[nH]ccc34)c2O1)N1CCC(c2cnc[nH]2)CC1` (stereo not drawn) [(4-(1H-imidazol-5-yl)piperidin-1-yl)(5-chloro-7-(1H-pyrrolo[2,3-b]pyridin-4-yl)-2,3-dihydrobenzofuran-2-yl)methanone], with 1 to 10 µM; and `CCC(O)c1cc2nccc(-c3cc(Cl)cc4c3O[C@@H](C(=O)N3CCC(c5cnc[nH]5)CC3)C4)c2s1` (stereo partly drawn) [(4-(1H-imidazol-5-yl)piperidin-1-yl)((2R)-5-chloro-7-(2-(1-hydroxypropyl)thieno[3,2-b]pyridin-7-yl)-2,3-dihydrobenzofuran-2-yl)methanone], with 1 to 10 µM; and `O=C(C1Cc2cc(Cl)cc(-c3ccnc4[nH]ccc34)c2O1)N1CCC(O)(c2ccc(F)cc2Cl)CC1` (stereo not drawn) [(4-(2-chloro-4-fluorophenyl)-4-hydroxypiperidin-1-yl)(5-chloro-7-(1H-pyrrolo[2,3-b]pyridin-4-yl)-2,3-dihydrobenzofuran-2-yl)methanone], with 1 to 10 µM.

Consider `O=C(C1Cc2cc(Cl)cc(-c3ccnc4[nH]ccc34)c2O1)N1CCC(O)(Cc2ccccc2)CC1` (stereo not drawn) [(4-benzyl-4-hydroxypiperidin-1-yl)(5-chloro-7-(1H-pyrrolo[2,3-b]pyridin-4-yl)-2,3-dihydrobenzofuran-2-yl)methanone], for which the IC50 fell in the range of 1 to 10 µM.

`O=C(C1Cc2cc(Cl)c(Cl)c(-c3ccnc4[nH]ccc34)c2O1)N1CCNCC1` (stereo not drawn) [(5,6-dichloro-7-(1H-pyrrolo[2,3-b]pyridin-4-yl)-2,3-dihydrobenzofuran-2-yl)(piperazin-1-yl)methanone] gave an IC50 of 1 to 10 µM. `O=C(C1Cc2cc(Cl)cc(-c3ccnc4[nH]ccc34)c2O1)N1CCN(c2ccccn2)CC1` (stereo not drawn) [(5-Chloro-7-(1H-pyrrolo[2,3-b]pyridin-4-yl)-2,3-dihydrobenzofuran-2-yl)(4-(pyridin-2-yl)piperazin-1-yl)methanone] registered an IC50 of 10 to 30 µM.

As to `Cc1cc(-c2cc(Cl)cc3c2OC(C(=O)N2CCNCC2)C3)ccn1` (stereo not drawn) [(5-Chloro-7-(2-methylpyridin-4-yl)-2,3-dihydrobenzofuran-2-yl)(piperazin-1-yl)methanone], the IC50 fell in the range of 10 to 30 µM. As to `CC1(C(=O)N2CCNCC2)Cc2cc(Cl)cc(-c3ccnc4[nH]ccc34)c2O1` (stereo not drawn) [(5-chloro-2-methyl-7-(1H-pyrrolo[2,3-b]pyridin-4-yl)-2,3-dihydrobenzofuran-2-yl)(piperazin-1-yl)methanone], the IC50 fell in the range of 1 to 10 µM. `O=C(C1Cc2cc(Cl)cc(-c3ccnc4cccnc34)c2O1)N1CCNCC1` (stereo not drawn) [(5-chloro-7-(1,5-naphthyridin-4-yl)-2,3-dihydrobenzofuran-2-yl)(piperazin-1-yl)methanone]: the IC50 was 10 to 30 µM. For `O=C(C1Cc2cc(Cl)cc(-c3ccnc4ccncc34)c2O1)N1CCNCC1` (stereo not drawn) [(5-chloro-7-(1,6-naphthyridin-4-yl)-2,3-dihydrobenzofuran-2-yl)(piperazin-1-yl)methanone], the IC50 is 10 to 30 µM.

The compound `O=C(C1Cc2cc(Cl)cc(-c3ccnc4[nH]ccc34)c2O1)N1CCC2(CC1)CNC2` (stereo not drawn) [(5-chloro-7-(1H-pyrrolo[2,3-b]pyridin-4-yl)-2,3-dihydrobenzofuran-2-yl)(2,7-diazaspiro[3.5]nonan-7-yl)methanone] yielded an IC50 of 1 to 10 µM. Then `CN1CCC(N2CCN(C(=O)C3Cc4cc(Cl)cc(-c5ccnc6[nH]ccc56)c4O3)CC2)CC1` (stereo not drawn) [(5-chloro-7-(1H-pyrrolo[2,3-b]pyridin-4-yl)-2,3-dihydrobenzofuran-2-yl)(4-(1-methylpiperidin-4-yl)piperazin-1-yl)methanone], with 10 to 30 µM; and `O=C(C1Cc2cc(Cl)cc(-c3ccnc4[nH]ccc34)c2O1)N1CCC(O)(c2ccccc2F)CC1` (stereo not drawn) [(5-chloro-7-(1H-pyrrolo[2,3-b]pyridin-4-yl)-2,3-dihydrobenzofuran-2-yl)(4-(2-fluorophenyl)-4-hydroxypiperidin-1-yl)methanone], with 1 to 10 µM. With `O=C(C1Cc2cc(Cl)cc(-c3ccnc4[nH]ccc34)c2O1)N1CCC(c2ccccc2O)CC1` (stereo not drawn) [(5-chloro-7-(1H-pyrrolo[2,3-b]pyridin-4-yl)-2,3-dihydrobenzofuran-2-yl)(4-(2-hydroxyphenyl)piperidin-1-yl)methanone], the IC50 lay within 1 to 10 µM. `O=C(C1Cc2cc(Cl)cc(-c3ccnc4[nH]ccc34)c2O1)N1CCC(O)(c2ccc(Cl)cc2)CC1` (stereo not drawn) [(5-chloro-7-(1H-pyrrolo[2,3-b]pyridin-4-yl)-2,3-dihydrobenzofuran-2-yl)(4-(4-chlorophenyl)-4-hydroxypiperidin-1-yl)methanone] returned an IC50 of 1 to 10 µM. Consider `O=C(C1Cc2cc(Cl)cc(-c3ccnc4[nH]ccc34)c2O1)N1CCC(c2ccc(O)cc2)CC1` (stereo not drawn) [(5-chloro-7-(1H-pyrrolo[2,3-b]pyridin-4-yl)-2,3-dihydrobenzofuran-2-yl)(4-(4-hydroxyphenyl)piperidin-1-yl)methanone], for which the IC50 fell in the range of 10 to 30 µM. Regarding `CN1CCC(CN2CCN(C(=O)C3Cc4cc(Cl)cc(-c5ccnc6[nH]ccc56)c4O3)CC2)CC1` (stereo not drawn) [(5-chloro-7-(1H-pyrrolo[2,3-b]pyridin-4-yl)-2,3-dihydrobenzofuran-2-yl)(4-((1-methylpiperidin-4-yl)methyl)piperazin-1-yl)methanone], the concentration for half-maximal inhibition (IC50) fell in the range of 1 to 10 µM. On to `O=C(C1Cc2cc(Cl)cc(-c3ccnc4[nH]ccc34)c2O1)N1CCN([C@H]2CC[C@H](c3ccccc3)CC2)CC1` (stereo partly drawn) [(5-chloro-7-(1H-pyrrolo[2,3-b]pyridin-4-yl)-2,3-dihydrobenzofuran-2-yl)(4-((1s,4r)-4-phenylcyclohexyl)piperazin-1-yl)methanone], for which the IC50 lay within 1 to 10 µM.

With `O=C(C1Cc2cc(Cl)cc(-c3ccnc4[nH]ccc34)c2O1)N1CCN([C@H]2CC[C@@H](c3ccccc3)CC2)CC1` (stereo partly drawn) [(5-chloro-7-(1H-pyrrolo[2,3-b]pyridin-4-yl)-2,3-dihydrobenzofuran-2-yl)(4-((1s,4s)-4-phenylcyclohexyl)piperazin-1-yl)methanone], the IC50 fell in the range of 1 to 10 µM. `CN(C)C1CCN(C(=O)C2Cc3cc(Cl)cc(-c4ccnc5[nH]ccc45)c3O2)CC1` (stereo not drawn) [(5-chloro-7-(1H-pyrrolo[2,3-b]pyridin-4-yl)-2,3-dihydrobenzofuran-2-yl)(4-(dimethylamino)piperidin-1-yl)methanone] returned an IC50 of 1 to 10 µM. `O=C(C1Cc2cc(Cl)cc(-c3ccnc4[nH]ccc34)c2O1)N1CCN(C2CCNCC2)CC1` (stereo not drawn) [(5-chloro-7-(1H-pyrrolo[2,3-b]pyridin-4-yl)-2,3-dihydrobenzofuran-2-yl)(4-(piperidin-4-yl)piperazin-1-yl)methanone] showed an IC50 of 10 to 30 µM.

In the case of `O=C(C1Cc2cc(Cl)cc(-c3ccnc4[nH]ccc34)c2O1)N1CCN(c2cccnc2)CC1` (stereo not drawn) [(5-chloro-7-(1H-pyrrolo[2,3-b]pyridin-4-yl)-2,3-dihydrobenzofuran-2-yl)(4-(pyridin-3-yl)piperazin-1-yl)methanone], the IC50 was 1 to 10 µM. Compound `O=C(C1Cc2cc(Cl)cc(-c3ccnc4[nH]ccc34)c2O1)N1CCN(c2ccncc2)CC1` (stereo not drawn) [(5-chloro-7-(1H-pyrrolo[2,3-b]pyridin-4-yl)-2,3-dihydrobenzofuran-2-yl)(4-(pyridin-4-yl)piperazin-1-yl)methanone] gave an IC50 of 1 to 10 µM. `O=C(C1Cc2cc(Cl)cc(-c3ccnc4[nH]ccc34)c2O1)N1CCC(c2ccncc2)CC1` (stereo not drawn) [(5-chloro-7-(1H-pyrrolo[2,3-b]pyridin-4-yl)-2,3-dihydrobenzofuran-2-yl)(4-(pyridin-4-yl)piperidin-1-yl)methanone] had an IC50 of 1 to 10 µM. As for `O=C(C1Cc2cc(Cl)cc(-c3ccnc4[nH]ccc34)c2O1)N1CCN(c2ccncn2)CC1` (stereo not drawn) [(5-chloro-7-(1H-pyrrolo[2,3-b]pyridin-4-yl)-2,3-dihydrobenzofuran-2-yl)(4-(pyrimidin-4-yl)piperazin-1-yl)methanone], the figure is 1 to 10 µM; as for `O=C(C1Cc2cc(Cl)cc(-c3ccnc4[nH]ccc34)c2O1)N1CCC(O)(c2ccccn2)CC1` (stereo not drawn) [(5-chloro-7-(1H-pyrrolo[2,3-b]pyridin-4-yl)-2,3-dihydrobenzofuran-2-yl)(4-hydroxy-4-(pyridin-2-yl)piperidin-1-yl)methanone], 1 to 10 µM. Compound `O=C(C1Cc2cc(Cl)cc(-c3ccnc4[nH]ccc34)c2O1)N1CCC(O)(c2cccnc2)CC1` (stereo not drawn) [(5-chloro-7-(1H-pyrrolo[2,3-b]pyridin-4-yl)-2,3-dihydrobenzofuran-2-yl)(4-hydroxy-4-(pyridin-3-yl)piperidin-1-yl)methanone] had an IC50 of under 1 µM. Then `O=C(C1Cc2cc(Cl)cc(-c3ccnc4[nH]ccc34)c2O1)N1CCC(O)(Cc2cccnc2)CC1` (stereo not drawn) [(5-chloro-7-(1H-pyrrolo[2,3-b]pyridin-4-yl)-2,3-dihydrobenzofuran-2-yl)(4-hydroxy-4-(pyridin-3-ylmethyl)piperidin-1-yl)methanone], with 10 to 30 µM; and `O=C(C1Cc2cc(Cl)cc(-c3ccnc4[nH]ccc34)c2O1)N1CCC(O)(c2ccncc2)CC1` (stereo not drawn) [(5-chloro-7-(1H-pyrrolo[2,3-b]pyridin-4-yl)-2,3-dihydrobenzofuran-2-yl)(4-hydroxy-4-(pyridin-4-yl)piperidin-1-yl)methanone], with under 1 µM. `O=C(C1Cc2cc(Cl)cc(-c3ccnc4[nH]ccc34)c2O1)N1CCC(O)(c2cccc3ncccc23)CC1` (stereo not drawn) [(5-chloro-7-(1H-pyrrolo[2,3-b]pyridin-4-yl)-2,3-dihydrobenzofuran-2-yl)(4-hydroxy-4-(quinolin-5-yl)piperidin-1-yl)methanone] gave an IC50 of 1 to 10 µM. For the compound `O=C(C1Cc2cc(Cl)cc(-c3ccnc4[nH]ccc34)c2O1)N1CCC(O)(c2ccccc2)CC1` (stereo not drawn) [(5-chloro-7-(1H-pyrrolo[2,3-b]pyridin-4-yl)-2,3-dihydrobenzofuran-2-yl)(4-hydroxy-4-phenylpiperidin-1-yl)methanone], the IC50 was 1 to 10 µM. `O=C(C1Cc2cc(Cl)cc(-c3ccnc4[nH]ccc34)c2O1)N1CCC(N2CCOCC2)CC1` (stereo not drawn) [(5-chloro-7-(1H-pyrrolo[2,3-b]pyridin-4-yl)-2,3-dihydrobenzofuran-2-yl)(4-morpholinopiperidin-1-yl)methanone] returned an IC50 of 1 to 10 µM.

By IC50 is commonly meant the concentration that gives 50% inhibition. Low values mean greater potency, high ones weaker potency.
